# Test results as given in US6555134B1, “Synergistic mixtures of garlic and lycopene for preventing LDL oxidation” (Lycored Natural Products Industries Ltd., priority 1998, dated 2003).
# Read-outs that look alike come from different tables or passages of the source. Marks after values point to notes of the source that are not given here.
# Key:
# LDL = experiment: copper ions-induced LDL oxidation (TBARS, lipids); type: biochemical, human; conditions: Experiment 1; lycopene 5 μg/ml
# Method: LDL was separated from human plasma by discontinuous density gradient ultracentrifugation and dialyzed against saline: EDTA (1 mM). Before oxidation LDL was diluted in PBS to 100 ug protein/ml, and dialyzed overnight against PBS at 4° C. LDL was oxidized by a metal ion dependent mechanism, by incubation for 24 hours at 37° C. with 5 uM CuSO4 freshly prepared as well as by determination of the thiobarbituric acid reactive substance (TBARS). Lycopene, as well as tomato oleoresin containing 5% lycopene, were dissolved in tetrahydrofuran (THF), 0.5 mg/ml stock solution for pure lycopene, and 10 mg/ml stock solution for the oleoresin. Garlic powder was extracted with water, dried, and resolubilized in water at a concentration of 0.25 mg of allicin equivalentsml for a stock solution. The synergistic effects of a combination of garlic and lycopene on copper ions-induced LDL oxidation was studied. Details are shown in Table 1, affording the individual components of the Abbott Equation used to calculate synergism as follows: [formula] where A=Percent Control of garlic alone B=Percent Control of Lycopene alone where IF=Actual control in Percent IE=Expected control in Percent Following the method of Experiment 1, the synergistic effect of a combination of garlic and lycopene as in Experiment 1; but using tomato oleoresin was run.
# blood lymphocytes = conditions: NO2 radical damage; cited from earlier work
# Cultured rat hepatocytes = conditions: cited from earlier work
# fatty acid synthetase = target: T1, fatty acid synthetase (Rattus norvegicus, UniProt P12785); conditions: at very high concentration; cited from earlier work
# T1 construct: Cultured rat hepatocytes; host or cells: primary rat hepatocyte cultures
# T1 sequence (P12785 whole entry): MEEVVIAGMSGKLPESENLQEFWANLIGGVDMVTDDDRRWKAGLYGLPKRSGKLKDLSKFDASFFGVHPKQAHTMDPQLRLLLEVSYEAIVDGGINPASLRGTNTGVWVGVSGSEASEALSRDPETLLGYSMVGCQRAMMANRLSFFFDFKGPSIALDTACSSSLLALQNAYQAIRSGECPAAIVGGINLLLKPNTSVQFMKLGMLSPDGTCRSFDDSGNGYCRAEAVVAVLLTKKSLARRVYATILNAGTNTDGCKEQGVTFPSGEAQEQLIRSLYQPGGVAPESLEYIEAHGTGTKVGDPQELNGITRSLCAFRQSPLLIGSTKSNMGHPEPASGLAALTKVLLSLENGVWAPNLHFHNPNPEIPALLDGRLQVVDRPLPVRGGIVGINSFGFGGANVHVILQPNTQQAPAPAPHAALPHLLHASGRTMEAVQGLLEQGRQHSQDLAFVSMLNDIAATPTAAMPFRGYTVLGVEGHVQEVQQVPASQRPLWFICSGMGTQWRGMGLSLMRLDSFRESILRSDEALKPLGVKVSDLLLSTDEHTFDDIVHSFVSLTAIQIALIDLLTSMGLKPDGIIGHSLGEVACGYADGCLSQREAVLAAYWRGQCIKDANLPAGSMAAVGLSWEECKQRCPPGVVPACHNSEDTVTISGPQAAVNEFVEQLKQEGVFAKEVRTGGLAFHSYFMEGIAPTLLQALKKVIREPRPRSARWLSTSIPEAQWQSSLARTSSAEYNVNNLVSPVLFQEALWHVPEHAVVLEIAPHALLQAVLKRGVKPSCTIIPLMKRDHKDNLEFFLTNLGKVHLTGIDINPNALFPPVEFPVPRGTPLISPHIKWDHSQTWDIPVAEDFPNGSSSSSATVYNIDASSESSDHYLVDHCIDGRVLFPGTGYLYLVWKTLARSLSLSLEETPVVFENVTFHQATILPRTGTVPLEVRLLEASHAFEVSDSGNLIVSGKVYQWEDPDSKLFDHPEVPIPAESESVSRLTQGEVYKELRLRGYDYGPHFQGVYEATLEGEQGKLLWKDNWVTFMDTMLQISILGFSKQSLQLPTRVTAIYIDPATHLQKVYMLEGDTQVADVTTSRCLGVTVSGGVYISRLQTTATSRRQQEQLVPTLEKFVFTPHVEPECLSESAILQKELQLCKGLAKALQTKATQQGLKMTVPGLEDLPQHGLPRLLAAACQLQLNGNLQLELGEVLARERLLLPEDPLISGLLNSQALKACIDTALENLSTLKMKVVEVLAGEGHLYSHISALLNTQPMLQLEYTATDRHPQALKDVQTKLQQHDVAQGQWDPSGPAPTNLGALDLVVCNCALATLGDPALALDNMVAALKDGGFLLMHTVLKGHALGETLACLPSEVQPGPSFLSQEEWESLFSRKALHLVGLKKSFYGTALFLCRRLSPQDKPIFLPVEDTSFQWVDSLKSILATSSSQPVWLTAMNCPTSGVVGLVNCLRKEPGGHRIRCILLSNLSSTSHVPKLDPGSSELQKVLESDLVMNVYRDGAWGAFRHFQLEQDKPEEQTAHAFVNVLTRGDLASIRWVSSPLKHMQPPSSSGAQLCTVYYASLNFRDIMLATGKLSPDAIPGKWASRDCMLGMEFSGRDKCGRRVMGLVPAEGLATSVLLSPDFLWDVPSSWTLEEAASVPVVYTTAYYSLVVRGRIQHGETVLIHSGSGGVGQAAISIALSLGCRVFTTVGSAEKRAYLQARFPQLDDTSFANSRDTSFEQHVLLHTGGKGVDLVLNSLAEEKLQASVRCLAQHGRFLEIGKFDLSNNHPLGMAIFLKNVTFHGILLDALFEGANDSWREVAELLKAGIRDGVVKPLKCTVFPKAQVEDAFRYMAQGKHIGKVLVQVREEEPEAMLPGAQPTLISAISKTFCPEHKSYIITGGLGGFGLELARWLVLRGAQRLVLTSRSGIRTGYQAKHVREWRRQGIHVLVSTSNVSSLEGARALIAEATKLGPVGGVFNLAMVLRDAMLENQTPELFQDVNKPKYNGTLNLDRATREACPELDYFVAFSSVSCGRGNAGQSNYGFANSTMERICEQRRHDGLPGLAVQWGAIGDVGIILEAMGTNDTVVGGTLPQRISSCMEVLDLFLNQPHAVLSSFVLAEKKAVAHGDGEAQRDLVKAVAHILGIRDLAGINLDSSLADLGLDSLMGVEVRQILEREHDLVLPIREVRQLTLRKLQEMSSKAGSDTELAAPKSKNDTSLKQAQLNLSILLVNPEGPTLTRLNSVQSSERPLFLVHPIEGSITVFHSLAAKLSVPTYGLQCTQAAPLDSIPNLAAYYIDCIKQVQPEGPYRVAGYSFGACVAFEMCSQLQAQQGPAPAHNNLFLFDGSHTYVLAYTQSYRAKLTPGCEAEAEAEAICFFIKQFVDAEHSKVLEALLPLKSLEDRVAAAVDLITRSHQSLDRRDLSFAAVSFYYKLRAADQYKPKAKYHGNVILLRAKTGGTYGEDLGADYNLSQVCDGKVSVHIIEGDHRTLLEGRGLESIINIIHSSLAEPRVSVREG
structure (smiles),measurement,setting,value
CC(C)=CCC/C(C)=C/C=C/C(C)=C/C=C/C(C)=C/C=C/C=C(C)/C=C/C=C(C)/C=C/C=C(\C)CCC=C(C)C [Lycopene],B = Percent Control of Lycopene alone,LDL,18^b Percent
same,antioxidant effectiveness relative to β-carotene,blood lymphocytes,at least twice as effective
CC[C@H](C)C(=O)O[C@H]1CCC=C2C=C[C@H](C)[C@H](CC[C@@H]3C[C@@H](O)CC(=O)O3)[C@H]21 [Mevastatin],inhibition of cholesterol biosynthesis,"Cultured rat hepatocytes; 24 h incubation, radiolabeled acetate",90%
C=CCS[S+]([O-])CC=C (centres unmarked) [allicin],inhibition of cholesterol biosynthesis,"Cultured rat hepatocytes; concentration corresponding to its content in the extracts, before or after incubation with alliinase",does not exert any inhibition
same,inhibition of fatty acid synthetase,fatty acid synthetase,inhibited
